Assays:
[1] = plasma protein binding, given as fraction; ref Drugbank; cited from earlier work
[2] = Normal-phase TLC on silica gel 60 F254 (Rf); type: physicochemical; settings: water:methanol:acetonitrile 60:20:20, ammonium acetate pH 7.4
[3] = Reversed-phase TLC on RP-2 silanized plates (Rf); type: physicochemical; settings: silica gel 60 RP-2 F254 silanized; water:methanol:acetonitrile 60:20:20, ammonium acetate pH 7.4
[4] = HPLC on IAM (immobilized artificial membrane) column, retention factor; type: physicochemical; settings: IAM.PC.DD.2 column; for k(IAM) retention factor: 10 mM phosphate buffer pH 7.4:acetonitrile 80:20; for logkIAM: logarithm of retention factor, phosphate buffer pH 7.4:acetonitrile 80:20

CCCC(=O)Nc1ccc(OCC(O)CNC(C)C)c(C(C)=O)c1 (stereo not drawn) [acebutolol]
PB (protein binding) [1]: 0.26

Oc1ncnc2[nH]ncc12 [allopurinnol]
NP (Rf from NP TLC plate) [2]: 0.89 | RP (Rf from RP-2 TLC plate) [3]: 0.97

CCCCc1oc2ccccc2c1C(=O)c1cc(I)c(OCCN(CC)CC)c(I)c1 [amiodarone]
RP (Rf from RP-2 TLC plate) [3]: 0.33

CCOC(=O)C1=C(COCCN)NC(C)=C(C(=O)OC)C1c1ccccc1Cl (stereo not drawn) [amlodipine]
RP (Rf from RP-2 TLC plate) [3]: 0.61 | k(IAM) retention factor [4]: 98.90 | logkIAM [4]: 2.00

CC(C)NCC(O)COc1ccc(CC(N)=O)cc1 (stereo not drawn) [atenolol]
NP (Rf from NP TLC plate) [2]: 0.34 | RP (Rf from RP-2 TLC plate) [3]: 0.58

CC(C)c1c(C(=O)Nc2ccccc2)c(-c2ccccc2)c(-c2ccc(F)cc2)n1CC[C@@H](O)C[C@@H](O)CC(=O)O [atorvastatin]
RP (Rf from RP-2 TLC plate) [3]: 0.8

O=C1CC2(CCCC2)CC(=O)N1CCCCN1CCN(c2ncccn2)CC1 [buspirone]
NP (Rf from NP TLC plate) [2]: 0.57 | k(IAM) retention factor [4]: 7.00 | logkIAM [4]: 0.84

Cn1c(=O)c2c(ncn2C)n(C)c1=O [caffeine]
NP (Rf from NP TLC plate) [2]: 0.82 | k(IAM) retention factor [4]: 0.18 | logkIAM [4]: -0.75

C[C@H](CS)C(=O)N1CCC[C@H]1C(=O)O [captopril]
NP (Rf from NP TLC plate) [2]: 0.77 | k(IAM) retention factor [4]: 0.01 | logkIAM [4]: -2.19

O=C(N[C@H](CO)[C@H](O)c1ccc([N+](=O)[O-])cc1)C(Cl)Cl [chloramphenikol]
NP (Rf from NP TLC plate) [2]: 0.99 | RP (Rf from RP-2 TLC plate) [3]: 0.89 | k(IAM) retention factor [4]: 1.08 | logkIAM [4]: 0.03

CCN(CC)CCCC(C)Nc1ccnc2cc(Cl)ccc12 (stereo not drawn) [chloroquine]
PB (protein binding) [1]: 0.55

O=C(O)c1cn(C2CC2)c2cc(N3CCNCC3)c(F)cc2c1=O [ciprofloxacin]
NP (Rf from NP TLC plate) [2]: 0.11 | RP (Rf from RP-2 TLC plate) [3]: 0.38

CN(C)CCCN1c2ccccc2CCc2ccc(Cl)cc21 [clomipramine]
NP (Rf from NP TLC plate) [2]: 0.33

Clc1ccc2c(c1)CCc1cccnc1C2=C1CCNCC1 [desloratidine]
k(IAM) retention factor [4]: 50.45 | logkIAM [4]: 1.70

C[C@H]1O[C@@H](O[C@H]2[C@@H](O)C[C@H](O[C@H]3[C@@H](O)C[C@H](O[C@H]4CC[C@@]5(C)[C@H](CC[C@@H]6[C@@H]5C[C@@H](O)[C@]5(C)[C@@H](C7=CC(=O)OC7)CC[C@]65O)C4)O[C@@H]3C)O[C@@H]2C)C[C@H](O)[C@@H]1O [digoxin]
k(IAM) retention factor [4]: 3.69 | logkIAM [4]: 0.57

COc1cc2nc(N3CCN(C(=O)C4COc5ccccc5O4)CC3)nc(N)c2cc1OC (stereo not drawn) [doxazosin]
RP (Rf from RP-2 TLC plate) [3]: 0.75 | k(IAM) retention factor [4]: 0.22 | logkIAM [4]: -0.66

NC(N)=Nc1nc(CSCCC(N)=NS(N)(=O)=O)cs1 [famotidine]
NP (Rf from NP TLC plate) [2]: 0.7 | RP (Rf from RP-2 TLC plate) [3]: 0.98

OC(Cn1cncn1)(Cn1cncn1)c1ccc(F)cc1F [fluconazole]
NP (Rf from NP TLC plate) [2]: 0.87 | RP (Rf from RP-2 TLC plate) [3]: 0.9

COCCCC/C(=N\OCCN)c1ccc(C(F)(F)F)cc1 [fluvoxamine]
NP (Rf from NP TLC plate) [2]: 0.34

CC(C)Cc1ccc(C(C)C(=O)O)cc1 (stereo not drawn) [ibuprofen]
k(IAM) retention factor [4]: 0.86 | logkIAM [4]: -0.07

CC(C(=O)O)c1cccc(C(=O)c2ccccc2)c1 (stereo not drawn) [ketoprofen]
k(IAM) retention factor [4]: 0.20 | logkIAM [4]: -0.71

O=C(O)COCCN1CCN([C@H](c2ccccc2)c2ccc(Cl)cc2)CC1 [levocetrizine]
NP (Rf from NP TLC plate) [2]: 0.63 | logkIAM [4]: 0.58

CN(C)C(=O)C(CCN1CCC(O)(c2ccc(Cl)cc2)CC1)(c1ccccc1)c1ccccc1 [loperamide]
NP (Rf from NP TLC plate) [2]: 0.68 | RP (Rf from RP-2 TLC plate) [3]: 0.75

Cc1cnc(NC(=O)C2=C(O)c3ccccc3S(=O)(=O)N2C)s1 [meloxicam]
NP (Rf from NP TLC plate) [2]: 0.99 | k(IAM) retention factor [4]: 0.49 | logkIAM [4]: -0.31

COC(=O)c1ccc(O)cc1 [methyl paraben]
NP (Rf from NP TLC plate) [2]: 0.97 | RP (Rf from RP-2 TLC plate) [3]: 0.85 | k(IAM) retention factor [4]: 1.94 | logkIAM [4]: 0.29

CCN(CC)CCNC(=O)c1cc(Cl)c(N)cc1OC [metoclopramide]
k(IAM) retention factor [4]: 6.16 | logkIAM [4]: 0.79

Nc1cc(N2CCCCC2)nc(N)[n+]1[O-] [minoxidil]
NP (Rf from NP TLC plate) [2]: 0.43

CC(C)(O)c1ccccc1CC[C@@H](SCC1(CC(=O)O)CC1)c1cccc(/C=C/c2ccc3ccc(Cl)cc3n2)c1 [montelukast]
k(IAM) retention factor [4]: 99.10 | logkIAM [4]: 2.00

COc1ccc2cc([C@H](C)C(=O)O)ccc2c1 [naproxen]
NP (Rf from NP TLC plate) [2]: 0.92 | RP (Rf from RP-2 TLC plate) [3]: 0.88

Cc1cc2c(s1)Nc1ccccc1N=C2N1CCN(C)CC1 [olanzapine]
k(IAM) retention factor [4]: 20.31 | logkIAM [4]: 1.31

O=C1Nc2ccc(Cl)cc2C(c2ccccc2)=NC1O (stereo not drawn) [oxazepam]
NP (Rf from NP TLC plate) [2]: 0.93 | RP (Rf from RP-2 TLC plate) [3]: 0.83 | k(IAM) retention factor [4]: 4.78 | logkIAM [4]: 0.68

CCN(CC)CC#CCOC(=O)C(O)(c1ccccc1)C1CCCCC1 (stereo not drawn) [oxybutinin]
NP (Rf from NP TLC plate) [2]: 0.68 | RP (Rf from RP-2 TLC plate) [3]: 0.29 | k(IAM) retention factor [4]: 49.68 | logkIAM [4]: 1.70

CCC1(c2ccccc2)C(=O)NCNC1=O [primidone]
NP (Rf from NP TLC plate) [2]: 0.9 | RP (Rf from RP-2 TLC plate) [3]: 0.93

CCCNCC(O)COc1ccccc1C(=O)CCc1ccccc1 (stereo not drawn) [propafenone]
NP (Rf from NP TLC plate) [2]: 0.57 | RP (Rf from RP-2 TLC plate) [3]: 0.56

CC(C)NCC(O)COc1cccc2ccccc12 (stereo not drawn) [propranolol]
NP (Rf from NP TLC plate) [2]: 0.54 | k(IAM) retention factor [4]: 28.09 | logkIAM [4]: 1.45

CN[C@@H](C)[C@@H](O)c1ccccc1 [pseudoephedrine]
k(IAM) retention factor [4]: 2.21 | logkIAM [4]: 0.34

CC(N)C12CC3CC(CC(C3)C1)C2 (stereo not drawn) [rimantadine]
NP (Rf from NP TLC plate) [2]: 0.92 | RP (Rf from RP-2 TLC plate) [3]: 0.95

Cc1nc2n(c(=O)c1CCN1CCC(c3noc4cc(F)ccc34)CC1)CCCC2 [risperidone]
k(IAM) retention factor [4]: 4.83 | logkIAM [4]: 0.68

CC(C)c1nc(N(C)S(C)(=O)=O)nc(-c2ccc(F)cc2)c1/C=C/[C@@H](O)C[C@@H](O)CC(=O)O [rosuvastatin]
NP (Rf from NP TLC plate) [2]: 0.9 | RP (Rf from RP-2 TLC plate) [3]: 0.92 | k(IAM) retention factor [4]: 0.96 | logkIAM [4]: -0.02

CCC(C)(C)C(=O)O[C@H]1C[C@@H](C)C=C2C=C[C@H](C)[C@H](CC[C@@H]3C[C@@H](O)CC(=O)O3)[C@H]21 [simvastatin]
NP (Rf from NP TLC plate) [2]: 0.19 | RP (Rf from RP-2 TLC plate) [3]: 0.66

CN1C(=O)C(O)N=C(c2ccccc2)c2cc(Cl)ccc21 (stereo not drawn) [temazepam]
k(IAM) retention factor [4]: 6.74 | logkIAM [4]: 0.83

Cn1c(=O)c2[nH]cnc2n(C)c1=O [theophylline]
k(IAM) retention factor [4]: 0.12 | logkIAM [4]: -0.94

Cc1ccc(O)c([C@H](CCN(C(C)C)C(C)C)c2ccccc2)c1 [tolterodine]
k(IAM) retention factor [4]: 0.21 | logkIAM [4]: -0.68

Cc1ccc(-c2nc3ccc(C)cn3c2CC(=O)N(C)C)cc1 [zolpidem]
k(IAM) retention factor [4]: 2.60 | logkIAM [4]: 0.42

PABA
k(IAM) retention factor [4]: 0.01 | logkIAM [4]: -1.88

gentamycin
NP (Rf from NP TLC plate) [2]: 0.96 | RP (Rf from RP-2 TLC plate) [3]: 0.911
